Data as given in patent US20260124191A1, “HISTONE DEACETYLASE INHIBITOR AND USES THEREOF” (NANJING HONGSHUN PHARMACEUTICAL TECHNOLOGY CO., LTD, priority 2023, published 2026).

How the values were obtained:
[1] = tested on: human breast cancer cells MCF7; assay: In vitro anti-tumor activity, MTT method; type: cell-based; conditions: MCF-7, MTT, 96-hour treatment
Experimental: (§1) The inhibitory effects of the compounds against human non-small cell lung cancer cell lines A549, NCI-H1650, human small cell lung cancer cell lines H446, human prostate cancer cells DU145, PC-3, LNCAP, human colon cancer cells lines HCT116, human breast cancer cells MDA-MB-231, and MCF7 tumor cell lines were determined using the MTT method.
(§2) The method was as follows. The cells in the exponential growth phase were collected to count living cells. The concentration of the cell suspension was adjusted using the corresponding medium of each group of cells. The cell suspension was added to the 96-well culture plate at 100 μL per cell, and the plate was placed in a 5% CO2 incubator at 37° C. and incubated for 24 h. Each test compound was dissolved in DMSO to prepare a stock solution with a corresponding concentration. Then, each stock solution was diluted 500-fold with the medium to prepare 4 replicate wells. 100 μL of the corresponding 500-fold solution was added to each well per cell line, with the final DMSO concentration of 0.1%. […] The half-maximal (relative to the DMSO control group) inhibition rate was calculated using the software GraphPad Prism 4.

[2] = tested on: human non-small cell lung cancer cell line A549; assay: In vitro anti-tumor activity, MTT method; type: cell-based; conditions: 96-hour treatment
Experimental: as §1, §2

[3] = tested on: human prostate cancer cells DU145; assay: In vitro anti-tumor activity, MTT method; type: cell-based; conditions: 96-hour treatment
Experimental: as §1, §2

[4] = tested on: human prostate cancer cells PC-3; assay: In vitro anti-tumor activity, MTT method; type: cell-based; conditions: PC-3, MTT, 96-hour treatment
Experimental: as §1, §2

HDAC = HDAC inhibitory activity assay (FRET); type: biochemical; conditions: for Inhibition rate: test concentration 100 nM, relative to DMSO control; for IC50: HDAC, FRET, read-out: Half-maximal inhibitory concentration (IC50 ± SD)
Experimental: The HDAC inhibitory activity of the synthesized compounds was determined by fluorescence resonance energy transfer (FRET), and then compared with that of the positive control to screen out compounds with better activity. HDAC was obtained by purification or purchased directly.
The method was as follows.
An enzyme was added to reaction wells, a reaction buffer was added to control wells, a sample dissolved in DMSO was added to the reaction wells, and the wells were incubated using a contactless nanoflow sonic pipetting system (Ech-550; nanoflow). A fluorescent substrate was added to each reaction well and then rotated and shaken. The wells were incubated for 1-2 h at 30° C. under a sealed condition. A TMP26-containing chromogenic agent was added to terminate the reaction and produce fluorescence. The fluorescence intensity was detected using En Vision multi-label microplate detector (Perkin Elmer) (excitation light: 490 nm, emitted light: 520 nm). After the stabilization of color development, the endpoint value was read. The percentage (relative to the DMSO control group) inhibition rate was calculated using the software GraphPad Prism 4.

IC50 ([1]; Homo sapiens, MCF7, 96 h) [nM] | IC50 ([2]; Homo sapiens, A549, 96 h) [µM] | IC50 ([3]; Homo sapiens, DU-145, 96 h) [nM] | IC50 ([4]; Homo sapiens, 96 h) [nM] | IC50 [1] [nM] | IC50 [2] [µM] | IC50 [3] [nM] | IC50 [4] [nM] | IC50 (HDAC) [nM] | Compound | Inhibition rate (HDAC) | Inhibition rate (HDAC; 0.1 µM)
> 20000 | > 20 | > 20000 | > 20000 | – | – | – | – | – | O=C(CCCN1C(=O)C/C(=C\c2ccccc2)C1=O)NO [Example I-1, (E)-4-(3-benzal-2,5-dioxopyrrolidinyl)-N-hydroxybutyramide] | – | –
> 20000 | > 20 | > 20000 | > 20000 | – | – | – | – | – | O=C(CCCCN1C(=O)C/C(=C\c2ccccc2)C1=O)NO [Example I-2] | – | –
2580 ± 70 | 3.51 ± 0.15 | 1490 ± 210 | 4270 ± 250 | – | – | – | – | – | O=C(CCCCCN1C(=O)C/C(=C\c2ccccc2)C1=O)NO [Example I-3] | – | –
3890 ± 360 | 5.88 ± 0.58 | 1560 ± 180 | 5010 ± 380 | – | – | – | – | – | O=C(CCCCCCCN1C(=O)C/C(=C\c2ccccc2)C1=O)NO [Example I-5] | – | –
– | – | – | – | > 20000 | > 20 | > 20000 | > 20000 | – | Nc1cc(F)ccc1NC(=O)CCCN1C(=O)C/C(=C\c2ccccc2)C1=O [Example I-6, (E)-N-(2-amino-4-fluorophenyl)-4-(3-benzal-2,5-diketopyrrolidinyl) butyramide] | – | –
> 20000 | > 20 | > 20000 | > 20000 | – | – | – | – | – | Nc1cc(F)ccc1NC(=O)CCCCN1C(=O)C/C(=C\c2ccccc2)C1=O [Example I-7, (E)-N-(2-amino-4-fluorophenyl)-5-(3-benzal-2,5-diketopyrrolidinyl)pentanamide] | 0% | –
> 20000 | > 20 | > 20000 | > 20000 | – | – | – | – | – | Nc1cc(F)ccc1NC(=O)CCCCCCN1C(=O)C/C(=C\c2ccccc2)C1=O [Example I-9, (E)-N-(2-amino-4-fluorophenyl)-7-(3-benzal-2,5-diketopyrrolidinyl)heptamide] | – | –
> 20000 | > 20 | > 20000 | > 20000 | – | – | – | – | – | O=C(CCCN1C(=O)C/C(=C\c2ccccc2)C1=O)N[C@H]1CCCC[C@@H]1O [Example I-10, 4-(3-((E)-benzal)-2,5-diketopyrrolidinyl)-N-((1S,2S)-2-hydroxycyclohexyl) butyramide] | – | –
> 20000 | > 20 | > 20000 | > 20000 | – | – | – | – | – | O=C(CCCCN1C(=O)C/C(=C\c2ccccc2)C1=O)N[C@H]1CCCC[C@@H]1O [Example I-11, 5-(3-((E)-benzal)-2,5-diketopyrrolidinyl)-N-((1S,2S)-2-hydroxycyclohexyl)pentanamide] | – | –
> 20000 | > 20 | > 20000 | > 20000 | – | – | – | – | – | O=C(CCCCCN1C(=O)C/C(=C\c2ccccc2)C1=O)N[C@H]1CCCC[C@@H]1O [Example I-12, 6-(3-((E)-benzal)-2,5-diketopyrrolidinyl)-N-((1S,2S)-2-hydroxycyclohexyl)hexanamide] | 0% | –
> 20000 | > 20 | > 20000 | > 20000 | – | – | – | – | – | O=C(CCCCCCN1C(=O)C/C(=C\c2ccccc2)C1=O)N[C@H]1CCCC[C@@H]1O [Example I-13, 7-(3-((E)-benzal)-2,5-diketopyrrolidinyl)-N-((1S,2S)-2-hydroxycyclohexyl)heptamide] | 0% | –
1660 ± 140 | 3.68 ± 0.5 | 1350 ± 270 | 1820 ± 160 | – | – | – | – | – | CC(C)c1ccc(/C=C2\CC(=O)N(CCCCCCC(=O)NO)C2=O)cc1 [Example I-15, (E)-7-(3-(4-isopropylbenzal)-2,5-diketopyrrolidinyl)-N-hydroxyheptamide] | 81.4% ± 0.5% | –
1160 ± 120 | 2.24 ± 0.08 | 920 ± 30 | 1750 ± 120 | – | – | – | – | – | CN(C)c1ccc(/C=C2\CC(=O)N(CCCCCCC(=O)NO)C2=O)cc1 [Example I-16, (E)-7-(3-(4-dimethylaminobenzal)-2,5-diketopyrrolidinyl)-N-hydroxyheptamide] | 93.3% ± 1.0% | –
1680 ± 90 | 3.37 ± 0.43 | 1220 ± 180 | 1830 ± 50 | – | – | – | – | – | O=C(CCCCCCN1C(=O)C/C(=C\c2ccc(C(F)(F)F)cc2)C1=O)NO [Example I-17, (E)-7-(3-(4-trifluoromethylbenzal)-2,5-diketopyrrolidinyl)-N-hydroxyheptamide] | 76.2% ± 0.7% | –
– | 1.88 ± 0.17 | – | – | 460 ± 40 | – | 310 ± 50 | 2200 ± 80 | – | Cc1ccc(/C=C2\CC(=O)N(CCCCCCC(=O)NO)C2=O)cc1 [Example I-18, (E)-7-(3-(4-methylbenzal)-2,5-diketopyrrolidinyl)-N-hydroxyheptamide] | – | 85.9% ± 0.9%
820 ± 50 | 2.82 ± 0.39 | 740 ± 100 | 870 ± 100 | – | – | – | – | 40.1 ± 1.21 | N#Cc1ccccc1/C=C1\CC(=O)N(CCCCCCC(=O)NO)C1=O [Example I-20, (E)-7-(3-(2-cyanobenzal)-2,5-diketopyrrolidinyl)-N-hydroxyheptamide] | – | –
1540 ± 90 | 2.25 ± 0.25 | 670 ± 90 | 990 ± 40 | – | – | – | – | – | O=C(CCCCCCN1C(=O)C/C(=C\c2ccccn2)C1=O)NO [Example I-21, (E)-7-(3-(2-methylenepyridin)-2,5-diketopyrrolidinyl)-N-hydroxyheptamide] | 88.3% ± 1.1% | –
970 ± 50 | 3.44 ± 0.15 | 540 ± 100 | 910 ± 70 | – | – | – | – | – | O=C(CCCCCCN1C(=O)C/C(=C\c2cccs2)C1=O)NO [Example I-23, (E)-7-(3-(2-methylenethienyl)-2,5-diketopyrrolidinyl)-N-hydroxyheptamide] | 84.9% ± 0.5% | –
690 ± 90 | 2.2 ± 0.26 | 570 ± 40 | 890 ± 120 | – | – | – | – | – | O=C(CCCCCCN1C(=O)C/C(=C\c2ccc(Cl)cc2)C1=O)NO [Example I-26, (E)-7-(3-(4-chlorobenzal)-2,5-diketopyrrolidinyl)-N-hydroxyheptamide] | 86.6% ± 0.4% | –
830 ± 50 | 2.81 ± 0.1 | 650 ± 90 | 1060 ± 130 | – | – | – | – | – | O=C(CCCCCCN1C(=O)C/C(=C\c2cccc(Br)c2)C1=O)NO [Example I-27, (E)-7-(3-(3-bromobenzal)-2,5-diketopyrrolidinyl)-N-hydroxyheptamide] | 90.9% ± 1.2% | –
920 ± 50 | 3.02 ± 0.51 | 660 ± 120 | 890 ± 50 | – | – | – | – | – | O=C(CCCCCCN1C(=O)C/C(=C\c2cccc(F)c2)C1=O)NO [Example I-28, (E)-7-(3-(3-fluorobenzal)-2,5-diketopyrrolidinyl)-N-hydroxyheptamide] | 85.2% ± 1.6% | –
1380 ± 120 | 5.09 ± 0.23 | 910 ± 70 | 1470 ± 150 | – | – | – | – | – | O=C(CCCCCCN1C(=O)C/C(=C\c2cccc(I)c2)C1=O)NO [Example I-29, (E)-7-(3-(3-iodobenzal)-2,5-diketopyrrolidinyl)-N-hydroxyheptamide] | 91.3% ± 0.7% | –
900 ± 20 | 2.34 ± 0.1 | 440 ± 80 | 1690 ± 80 | – | – | – | – | – | O=C(CCCCCCN1C(=O)C/C(=C\c2ccc(Cl)c(Cl)c2)C1=O)NO [Example I-30, (E)-7-(3-(3,4-dichlorobenzal)-2,5-diketopyrrolidinyl)-N-hydroxyheptamide] | 82.1% ± 0.1% | –
880 ± 90 | 1.24 ± 0.21 | 400 ± 40 | 920 ± 30 | – | – | – | – | 18.5 ± 0.19 | COc1cccc(/C=C2\CC(=O)N(CCCCCCC(=O)NO)C2=O)c1 [Example I-32, (E)-7-(3-(3-methoxybenzal)-2,5-diketopyrrolidinyl)-N-hydroxyheptamide] | – | –
1020 ± 110 | 1.52 ± 0.14 | 500 ± 100 | 890 ± 100 | – | – | – | – | 13 ± 0.02 | COc1ccc(/C=C2\CC(=O)N(CCCCCCC(=O)NO)C2=O)cc1 [Example I-33, (E)-7-(3-(4-methoxybenzal)-2,5-diketopyrrolidinyl)-N-hydroxyheptamide] | – | –
820 ± 90 | 1.23 ± 0.17 | 450 ± 120 | 880 ± 100 | – | – | – | – | – | COc1ccc(/C=C2\CC(=O)N(CCCCCCC(=O)NO)C2=O)cc1OC [Example I-34, (E)-7-(3-(3,4-dimethoxybenzal)-2,5-diketopyrrolidinyl)-N-hydroxyheptamide] | 85.3% ± 7.2% | –
